Data on 18 compounds can be found in US8580794B2 (AbbVie Inc., priority 2009, dated 2013).

The experiment concerns the target GST-Bc1-2 (Homo sapiens, UniProt P10415). The experiment can be described thus: Time Resolved-Fluorescence Resonance Energy Transfer (TR-FRET) Bcl-2 binding assay with F-Bak peptide probe. Conditions: GST-Bcl-2 1 nM, F-Bak probe 100 nM, Tb-anti-GST 1 nM; '<' = below limit of detection; read-out: TR-FRET Bcl-2 Binding Ki. On the technique in general: Time-resolved FRET reads energy transfer from a long-lived donor to a nearby acceptor.

Chain of GST-Bc1-2 (P10415 whole entry): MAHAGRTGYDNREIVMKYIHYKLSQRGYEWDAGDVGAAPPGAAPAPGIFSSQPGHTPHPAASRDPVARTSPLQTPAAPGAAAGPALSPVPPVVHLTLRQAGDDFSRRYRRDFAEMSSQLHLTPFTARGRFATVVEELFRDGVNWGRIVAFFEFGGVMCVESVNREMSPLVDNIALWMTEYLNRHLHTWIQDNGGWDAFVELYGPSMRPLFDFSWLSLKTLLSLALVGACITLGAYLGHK
Protocol: The samples are then mixed on a shaker for 1 minute and incubated for an additional 3 hours at room temperature. For each assay, the probe/antibody and protein/probe/antibody were included on each assay plate as negative and positive controls, respectively.
The samples were then mixed on a shaker for 1 minute and incubated for an additional 3 hours at room temperature. For each assay, the probe/antibody and protein/probe/antibody were included on each assay plate as negative and positive controls, respectively.

The term Ki denotes a dissociation constant, usually derived from enzyme kinetics or from competition with a known ligand. On to `CC1(C)CCC(CN2CCN(c3ccc(C(=O)NS(=O)(=O)c4ccc(NC[C@H]5CC[C@H](O)C5)c([N+](=O)[O-])c4)c(Oc4cnc5[nH]ccc5c4)c3)CC2)=C(c2ccc(Cl)cc2)C1` [Example 157, 4-(4-{[2-(4-chlorophenyl)-4,4-dimethylcyclohex-1-en-1-yl]methyl}piperazin-1-yl)-N-{[4-({[(1S,3S)-3-hydroxycyclopentyl]methyl}amino)-3-nitrophenyl]sulfonyl}-2-(1H-pyrrolo[2,3-b]pyridin-5-yloxy)benzamide], for which the Ki is < 0.01 nM.
Regarding `CC1(C)CCC(CN2CCN(c3ccc(C(=O)NS(=O)(=O)c4ccc(NC[C@H]5CC[C@@H](O)C5)c([N+](=O)[O-])c4)c(Oc4cnc5[nH]ccc5c4)c3)CC2)=C(c2ccc(Cl)cc2)C1` [Example 158, 4-(4-{[2-(4-chlorophenyl)-4,4-dimethylcyclohex-1-en-1-yl]methyl}piperazin-1-yl)-N-{[4-({[(1S,3R)-3-hydroxycyclopentyl]methyl}amino)-3-nitrophenyl]sulfonyl}-2-(1H-pyrrolo[2,3-b]pyridin-5-yloxy)benzamide], the Ki is < 0.01 nM.
On to `CC1(C)CCC(CN2CCN(c3ccc(C(=O)NS(=O)(=O)c4ccc(NC[C@@H]5CC[C@H](O)C5)c([N+](=O)[O-])c4)c(Oc4cnc5[nH]ccc5c4)c3)CC2)=C(c2ccc(Cl)cc2)C1` [Example 159, 4-(4-{[2-(4-chlorophenyl)-4,4-dimethylcyclohex-1-en-1-yl]methyl}piperazin-1-yl)-N-{[4-({[(1R,3S)-3-hydroxycyclopentyl]methyl}amino)-3-nitrophenyl]sulfonyl}-2-(1H-pyrrolo[2,3-b]pyridin-5-yloxy)benzamide], for which the Ki was < 0.01 nM.
Turning to `CC1(C)CCC(CN2CCN(c3ccc(C(=O)NS(=O)(=O)c4ccc(N[C@H]5CCCNC5=O)c([N+](=O)[O-])c4)c(Oc4cnc5[nH]ccc5c4)c3)CC2)=C(c2ccc(Cl)cc2)C1` [Example 160, 4-(4-{[2-(4-chlorophenyl)-4,4-dimethylcyclohex-1-en-1-yl]methyl}piperazin-1-yl)-N-[(3-nitro-4-{[(3S)-2-oxopiperidin-3-yl]amino}phenyl)sulfonyl]-2-(1H-pyrrolo[2,3-b]pyridin-5-yloxy)benzamide], the Ki was < 0.01 nM.
Take `CC1(C)CCC(CN2CCN(c3ccc(C(=O)NS(=O)(=O)c4ccc(NCC5CN(C(CF)CF)C5)c([N+](=O)[O-])c4)c(Oc4cnc5[nH]ccc5c4)c3)CC2)=C(c2ccc(Cl)cc2)C1` [Example 161, 4-(4-{[2-(4-chlorophenyl)-4,4-dimethylcyclohex-1-en-1-yl]methyl}piperazin-1-yl)-N-({4-[({1-[2-fluoro-1-(fluoromethyl)ethyl]azetidin-3-yl}methyl)amino]-3-nitrophenyl}sulfonyl)-2-(1H-pyrrolo[2,3-b]pyridin-5-yloxy)benzamide]: the Ki was < 0.01 nM.
`CC1(C)CCC(CN2CCN(c3ccc(C(=O)NS(=O)(=O)c4ccc(NCC5CN(C6COC6)C5)c([N+](=O)[O-])c4)c(Oc4cnc5[nH]ccc5c4)c3)CC2)=C(c2ccc(Cl)cc2)C1` [Example 162, 4-(4-{[2-(4-chlorophenyl)-4,4-dimethylcyclohex-1-en-1-yl]methyl}piperazin-1-yl)-N-[(3-nitro-4-{[(1-oxetan-3-ylazetidin-3-yl)methyl]amino}phenyl)sulfonyl]-2-(1H-pyrrolo[2,3-b]pyridin-5-yloxy)benzamide]: the Ki was < 0.01 nM.
As to `CC1(C)CCC(CN2CCN(c3ccc(C(=O)NS(=O)(=O)c4ccc(NCC5CCN(C6COC6)CC5)c([N+](=O)[O-])c4)c(Oc4cnc5[nH]ccc5c4)c3)CC2)=C(c2ccc(Cl)cc2)C1` [Example 163, 4-(4-{[2-(4-chlorophenyl)-4,4-dimethylcyclohex-1-en-1-yl]methyl}piperazin-1-yl)-N-[(3-nitro-4-{[(1-oxetan-3-ylpiperidin-4-yl)methyl]amino}phenyl)sulfonyl]-2-(1H-pyrrolo[2,3-b]pyridin-5-yloxy)benzamide], the Ki was < 0.01 nM.
For the compound `CC1(C)CCC(CN2CCN(c3ccc(C(=O)NS(=O)(=O)c4ccc(NCC5CCN(C6CC6)CC5)c([N+](=O)[O-])c4)c(Oc4cnc5[nH]ccc5c4)c3)CC2)=C(c2ccc(Cl)cc2)C1` [Example 164, 4-(4-{[2-(4-chlorophenyl)-4,4-dimethylcyclohex-1-en-1-yl]methyl}piperazin-1-yl)-N-[(4-{[(1-cyclopropylpiperidin-4-yl)methyl]amino}-3-nitrophenyl)sulfonyl]-2-(1H-pyrrolo[2,3-b]pyridin-5-yloxy)benzamide], the Ki was < 0.01 nM.
Consider `CC1(C)CCC(CN2CCN(c3ccc(C(=O)NS(=O)(=O)c4ccc(NCC5CN(CCF)CCO5)c([N+](=O)[O-])c4)c(Oc4cnc5[nH]ccc5c4)c3)CC2)=C(c2ccc(Cl)cc2)C1` (stereo not drawn) [Example 165, 4-(4-{[2-(4-chlorophenyl)-4,4-dimethylcyclohex-1-en-1-yl]methyl}piperazin-1-yl)-N-{[4-({[4-(2-fluoroethyl)morpholin-2-yl]methyl}amino)-3-nitrophenyl]sulfonyl}-2-(1H-pyrrolo[2,3-b]pyridin-5-yloxy)benzamide], for which the Ki is < 0.01 nM.
On to `CC1(C)CCC(CN2CCN(c3ccc(C(=O)NS(=O)(=O)c4ccc(NCC5CN(CC(F)F)CCO5)c([N+](=O)[O-])c4)c(Oc4cnc5[nH]ccc5c4)c3)CC2)=C(c2ccc(Cl)cc2)C1` (stereo not drawn) [Example 166, 4-(4-{[2-(4-chlorophenyl)-4,4-dimethylcyclohex-1-en-1-yl]methyl}piperazin-1-yl)-N-{[4-({[4-(2,2-difluoroethyl)morpholin-2-yl]methyl}amino)-3-nitrophenyl]sulfonyl}-2-(1H-pyrrolo[2,3-b]pyridin-5-yloxy)benzamide], for which the Ki was < 0.01 nM.
With `CC1(C)CCC(CN2CCN(c3ccc(C(=O)NS(=O)(=O)c4ccc(OCC5(F)CCN(C6COC6)CC5)c([N+](=O)[O-])c4)c(Oc4cnc5[nH]ccc5c4)c3)CC2)=C(c2ccc(Cl)cc2)C1` [Example 167, 4-(4-{[2-(4-chlorophenyl)-4,4-dimethylcyclohex-1-en-1-yl]methyl}piperazin-1-yl)-N-({4-[(4-fluoro-1-oxetan-3-ylpiperidin-4-yl)methoxy]-3-nitrophenyl}sulfonyl)-2-(1H-pyrrolo[2,3-b]pyridin-5-yloxy)benzamide], the Ki was < 0.01 nM.
With `CC1(C)CCC(CN2CCN(c3ccc(C(=O)NS(=O)(=O)c4ccc(OC[C@@H]5CC(F)(F)CN5C5COC5)c([N+](=O)[O-])c4)c(Oc4cnc5[nH]ccc5c4)c3)CC2)=C(c2ccc(Cl)cc2)C1` [Example 168, 4-(4-{[2-(4-chlorophenyl)-4,4-dimethylcyclohex-1-en-1-yl]methyl}piperazin-1-yl)-N-[(4-{[(2S)-4,4-difluoro-1-oxetan-3-ylpyrrolidin-2-yl]methoxy}-3-nitrophenyl)sulfonyl]-2-(1H-pyrrolo[2,3-b]pyridin-5-yloxy)benzamide], the Ki is < 0.01 nM.
Regarding `CC1(C)CCC(CN2CCN(c3ccc(C(=O)NS(=O)(=O)c4ccc(NCC5COCCN5C5CCOCC5)c([N+](=O)[O-])c4)c(Oc4cnc5[nH]ccc5c4)c3)CC2)=C(c2ccc(Cl)cc2)C1` (stereo not drawn) [Example 169, 4-(4-{[2-(4-chlorophenyl)-4,4-dimethylcyclohex-1-en-1-yl]methyl}piperazin-1-yl)-N-[(3-nitro-4-{[(4-tetrahydro-2H-pyran-4-ylmorpholin-3-yl)methyl]amino}phenyl)sulfonyl]-2-(1H-pyrrolo[2,3-b]pyridin-5-yloxy)benzamide], the Ki stood at 0.021 nM.
As for `CC1(C)CCC(CN2CCN(c3ccc(C(=O)NS(=O)(=O)c4ccc(NCC5COCCN5C5CCC5)c([N+](=O)[O-])c4)c(Oc4cnc5[nH]ccc5c4)c3)CC2)=C(c2ccc(Cl)cc2)C1` (stereo not drawn) [Example 170, 4-(4-{[2-(4-chlorophenyl)-4,4-dimethylcyclohex-1-en-1-yl]methyl}piperazin-1-yl)-N-[(4-{[(4-cyclobutylmorpholin-3-yl)methyl]amino}-3-nitrophenyl)sulfonyl]-2-(1H-pyrrolo[2,3-b]pyridin-5-yloxy)benzamide], the Ki came out at 0.022 nM.
On to `CC1(C)CCC(CN2CCN(c3ccc(C(=O)NS(=O)(=O)c4ccc(NCC5COCCN5C5CCOC5)c([N+](=O)[O-])c4)c(Oc4cnc5[nH]ccc5c4)c3)CC2)=C(c2ccc(Cl)cc2)C1` (stereo not drawn) [Example 171, 4-(4-{[2-(4-chlorophenyl)-4,4-dimethylcyclohex-1-en-1-yl]methyl}piperazin-1-yl)-N-[(3-nitro-4-{[(4-tetrahydrofuran-3-ylmorpholin-3-yl)methyl]amino}phenyl)sulfonyl]-2-(1H-pyrrolo[2,3-b]pyridin-5-yloxy)benzamide], for which the Ki is < 0.01 nM.
To `CC1(C)CCC(CN2CCN(c3ccc(C(=O)NS(=O)(=O)c4ccc(NCC5CCN(C(CF)CF)CC5)c([N+](=O)[O-])c4)c(Oc4cnc5[nH]ccc5c4)c3)CC2)=C(c2ccc(Cl)cc2)C1` [Example 172, 4-(4-{[2-(4-chlorophenyl)-4,4-dimethylcyclohex-1-en-1-yl]methyl}piperazin-1-yl)-N-({4-[({1-[2-fluoro-1-(fluoromethyl)ethyl]piperidin-4-yl}methyl)amino]-3-nitrophenyl}sulfonyl)-2-(1H-pyrrolo[2,3-b]pyridin-5-yloxy)benzamide] belongs < 0.01 nM.
The result for `CC1(C)CCC(CN2CCN(c3ccc(C(=O)NS(=O)(=O)c4ccc(OCC5(F)CCN(C6CC6)CC5)c([N+](=O)[O-])c4)c(Oc4cnc5[nH]ccc5c4)c3)CC2)=C(c2ccc(Cl)cc2)C1` [Example 173, 4-(4-{[2-(4-chlorophenyl)-4,4-dimethylcyclohex-1-en-1-yl]methyl}piperazin-1-yl)-N-({4-[(1-cyclopropyl-4-fluoropiperidin-4-yl)methoxy]-3-nitrophenyl}sulfonyl)-2-(1H-pyrrolo[2,3-b]pyridin-5-yloxy)benzamide] reads < 0.01 nM; that for `COc1ccc(CNc2ccc(S(=O)(=O)NC(=O)c3ccc(N4CCN(CC5=C(c6ccc(Cl)cc6)CC(C)(C)CC5)CC4)cc3Oc3cnc4[nH]ccc4c3)cc2[N+](=O)[O-])cc1` [Example 174, 4-(4-{[2-(4-chlorophenyl)-4,4-dimethylcyclohex-1-en-1-yl]methyl}piperazin-1-yl)-N-({4-[(4-methoxybenzyl)amino]-3-nitrophenyl}sulfonyl)-2-(1H-pyrrolo[2,3-b]pyridin-5-yloxy)benzamide], < 0.01 nM.
